Assay results as given in patent publication US20210196720A1 (UROVANT SCIENCES GMBH, priority 2018, published 2021).
Like-named read-outs stand apart in the source and are kept apart here.

Tests used:
β3-AR = β3-AR (Homo sapiens, UniProt P13945); assay: Adenylyl cyclase functional assay in CHO cells stably expressing human β3-AR; type: cell-based; parameters: expressed in transfected cells
Experimental: The degree of activation relative to a proven full agonist (isoproterenol) was measured along with the compound EC50.

[1] = Drug interaction: effect of conmed on vibegron PK; type: in vivo, human; settings: for half-life / AUC / Cmax: human, oral; for half-life: read-out: GM t1/2 (converted); for AUC / Cmax: plasma
Text: However, these interactions are not expected to be clinically significant.

β2-AR = β2-AR (Homo sapiens, UniProt P07550); assay: Competition binding assay, recombinant β2-AR
β2-AR, sequence (P07550 whole entry): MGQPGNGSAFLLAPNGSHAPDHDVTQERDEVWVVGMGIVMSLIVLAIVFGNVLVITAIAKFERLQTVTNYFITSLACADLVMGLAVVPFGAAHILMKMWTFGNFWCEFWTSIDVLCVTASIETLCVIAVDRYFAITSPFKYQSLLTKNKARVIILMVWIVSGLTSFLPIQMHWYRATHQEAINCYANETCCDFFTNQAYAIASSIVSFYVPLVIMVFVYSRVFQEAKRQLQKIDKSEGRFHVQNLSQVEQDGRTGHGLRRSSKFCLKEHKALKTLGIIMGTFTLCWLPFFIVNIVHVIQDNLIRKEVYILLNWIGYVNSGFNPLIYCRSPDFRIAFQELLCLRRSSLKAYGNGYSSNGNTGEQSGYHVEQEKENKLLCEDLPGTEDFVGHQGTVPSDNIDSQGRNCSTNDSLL

[2] = Phase 2b OAB study, adverse events
Text: A placebo group was included in the main study, and a group that received tolterodine monotherapy was included in the main study and in the extension.

[3] = Capsule vs tablet single-dose crossover PK, 150 mg, healthy males; type: in vivo; settings: male, human, plasma, oral
Text: Tmax and the apparent terminal t1/2 were also similar between the two formulations.

[4] = Maximum MA4 heart rate, multiple-dose Phase 1 study, day 14; type: in vivo, human
Experimental: More intensive assessments of heart rate and blood pressure were performed in healthy volunteers in several Phase 1 studies. […] Doses ranged from 25 to 400 mg once daily for 7 to 28 days depending on the cohort. Least squares mean and 90% confidence intervals of maximum change from baseline in moving average of heart rate over 4 hours postdose (MA4 HR) are presented in Table 14.

[5] = Human plasma protein binding; type: in vitro ADME
[6] = Aqueous vs non-aqueous tablet bioequivalence, 50 mg; type: in vivo, human
Text: An open-label, single-dose, randomized, two-period, two-treatment, two-sequence, crossover Phase 1 study evaluated the relative bioequivalence of two types of tablets with slightly different composition: aqueous tablet (test) and non-aqueous tablet (reference).

Phase 1 safety data = type: in vivo; settings: Phase 1, single 2-600 mg, multiple 25-400 mg
Text: Safety data from 16 Phase 1 studies, which include 15 completed Phase 1 studies and 1 study that was terminated early (this study was terminated for reasons unrelated to efficacy or safety) was collected.

CYP3A4 = CYP3A4 (Homo sapiens, UniProt P08684); assay: In vitro CYP metabolism; type: in vitro ADME
CYP3A4, sequence (P08684 whole entry): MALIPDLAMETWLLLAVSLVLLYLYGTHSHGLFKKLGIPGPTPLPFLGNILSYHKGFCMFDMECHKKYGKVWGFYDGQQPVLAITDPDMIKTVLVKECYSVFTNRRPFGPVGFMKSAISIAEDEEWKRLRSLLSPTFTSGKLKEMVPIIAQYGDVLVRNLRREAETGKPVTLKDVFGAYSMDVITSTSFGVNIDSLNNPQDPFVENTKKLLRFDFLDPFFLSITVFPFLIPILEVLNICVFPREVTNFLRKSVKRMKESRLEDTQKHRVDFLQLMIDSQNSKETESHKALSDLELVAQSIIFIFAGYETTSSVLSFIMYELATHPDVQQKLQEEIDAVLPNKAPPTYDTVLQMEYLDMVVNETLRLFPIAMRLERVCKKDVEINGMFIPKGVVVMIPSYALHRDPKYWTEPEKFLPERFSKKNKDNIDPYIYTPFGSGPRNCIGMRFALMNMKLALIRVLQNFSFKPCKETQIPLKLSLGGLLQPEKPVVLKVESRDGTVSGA

[7] = Moderate hepatic impairment PK, single 100 mg; type: in vivo, human; settings: for half-life: read-out: Apparent terminal t1/2 (converted)
[8] = in vivo
clinical = settings: human, 100 mg
Text: The relationship between clearance and renal function was modeled using linear regression.

[9] = 100 mg QD + tolterodine ER 4 mg QD
[10] = 100 mg single + diltiazem ER 240 mg QD
[11] = 100 mg single + ketoconazole 200 mg every 12 hours
[12] = 100 mg, 100 mg QD alone (tolterodine study)
[13] = 100 mg, 100 mg single, alone (diltiazem study)
[14] = 100 mg, 100 mg single, alone (ketoconazole study)
[15] = 150 mg QD + tolterodine ER 4 mg QD
[16] = 150 mg, 150 mg QD alone (tolterodine study)
[17] = with multiple doses of diltiazem
[18] = human, plasma, oral, 100 mg, healthy matched controls
[19] = human, plasma, oral, 100 mg, moderate hepatic impairment

β3-AR, sequence (P13945 whole entry): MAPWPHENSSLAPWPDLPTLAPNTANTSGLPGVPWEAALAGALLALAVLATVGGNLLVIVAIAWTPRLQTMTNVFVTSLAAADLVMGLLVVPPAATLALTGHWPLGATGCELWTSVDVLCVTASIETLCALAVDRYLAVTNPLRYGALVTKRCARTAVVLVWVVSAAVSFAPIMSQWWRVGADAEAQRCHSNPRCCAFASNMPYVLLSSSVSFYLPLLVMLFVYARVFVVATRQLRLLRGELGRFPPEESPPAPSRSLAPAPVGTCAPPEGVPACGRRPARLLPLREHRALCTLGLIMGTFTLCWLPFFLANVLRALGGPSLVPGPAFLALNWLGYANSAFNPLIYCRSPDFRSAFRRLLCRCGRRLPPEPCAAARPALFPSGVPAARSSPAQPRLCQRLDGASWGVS

Compound `O=C(Nc1ccc(C[C@@H]2CC[C@H]([C@H](O)c3ccccc3)N2)cc1)[C@@H]1CCc2nccc(=O)n21` [Vibegron, (6S)-N-[4-[[(2S,5R)-5-[(R)-hydroxy(phenyl)methyl]pyrrolidin-2-yl]methyl]phenyl]-4-oxo-7,8-dihydro-6H-pyrrolo[1,2-a]pyrimidine-6-carboxamide] has an EC50 (β3-AR) of 1.1 nM, an EC50 (β3-AR; 40% human serum) of 1.7 nM and a half-life ([1]; in vivo, 100 mg, vibegron alone) of 75 h. It also gave a half-life ([1]; in vivo, with diltiazem) of 75.4 h, a half-life ([1]; in vivo, with ketoconazole) of 80.2 h and an AUC [1, 9] of 1790 ng·h/mL. For the same compound, the Cmax [1, 9] was 163 ng/mL, the AUC [1, 10] was 2170 ng·h/mL and the Cmax [1, 10] was 167 ng/mL. It also gave an AUC [1, 11] of 2850 ng·h/mL, a Cmax [1, 11] of 251 ng/mL and an AUC [1, 12] of 1660 ng·h/mL. For the same compound, the Cmax [1, 12] was 158 ng/mL, the AUC [1, 13] was 1330 ng·h/mL and the Cmax [1, 13] was 99.8 ng/mL. The AUC [1, 14] was 1370 ng·h/mL, the Cmax [1, 14] was 113 ng/mL and the AUC [1, 15] was 3100 ng·h/mL. The Cmax [1, 15] was 304 ng/mL, the AUC [1, 16] was 2780 ng·h/mL and the Cmax [1, 16] was 269 ng/mL. The “effect of tolterodine ER 4 mg on pharmacokinetics of vibegron” value ([1]; in vivo) was “no effect”, the higher exposure ([1]; with a potent CYP3A/P-gp inhibitor) was about 2 fold and the “GM AUC0-inf increase” value [1, 17] was 63%. For the same compound, the “GM Cmax increase” value [1, 17] was 68%, the “binding to β2-AR” value (β2-AR) was “does not bind” and the tolerability ([2]; Phase 2b, 3 to 100 mg) was “generally well tolerated”. For the same compound, the “≥1 AE, subjects” value ([2]; first 12 weeks, dose group by column) was 107 n, the frequency of injuries ([2]; in vivo) was 0.9% and the AUC(0-inf) ([3]; 1 × 150 mg capsule) was 2840 ng·h/mL. It also gave a Cmax ([3]; 1 × 150 mg capsule) of 237 ng/mL, an AUC(0-inf) ([3]; 3 × 50 mg tablets) of 2660 ng·h/mL and a Cmax ([3]; 3 × 50 mg tablets) of 213 ng/mL. For the same compound, the “Maximum MA4 HR (LS mean)” value ([4]; 25 mg) was 1.47 bpm, the “Maximum MA4 HR, difference from placebo” value ([4]; 25 mg) was −1.60 bpm and the “Maximum MA4 HR (LS mean)” value ([4]; 50 mg) was 1.50 bpm. For the same compound, the “Maximum MA4 HR, difference from placebo” value ([4]; 50 mg) was −1.57 bpm, the “Maximum MA4 HR (LS mean)” value ([4]; 100 mg) was 3.28 bpm and the “Maximum MA4 HR (LS mean)” value ([4]; 150 mg) was 3.17 bpm. The “Maximum MA4 HR, difference from placebo” value ([4]; 150 mg) was 0.10 bpm, the “Maximum MA4 HR (LS mean)” value ([4]; 200 mg) was 5.67 bpm and the “Maximum MA4 HR, difference from placebo” value ([4]; 200 mg) was 2.60 bpm. For the same compound, the “Maximum MA4 HR (LS mean)” value ([4]; 300 mg) was 9.06 bpm, the “Maximum MA4 HR, difference from placebo” value ([4]; 300 mg) was 5.98 bpm and the “Maximum MA4 HR (LS mean)” value ([4]; 400 mg) was 10.33 bpm. The “Maximum MA4 HR, difference from placebo” value ([4]; 400 mg) was 7.26 bpm, the “bound to human plasma proteins” value [5] was “approximately 49%” and the “unbound in human plasma” value [5] was 49%. The “AUC0-inf GMR test/reference” value ([6]; 50 mg) was 100.2%, the “Cmax GMR test/reference” value ([6]; 50 mg) was 107.7% and the AUC(0-inf) ([6]; 50 mg test, aqueous tablet (PMFII)) was 671 ng·h/mL. It also gave a Cmax ([6]; human, plasma, po, 50 mg, 50 mg reference, non-aqueous tablet (PMF1)) of 38 ng/mL, a Cmax ([6]; human, plasma, po, 50 mg, 50 mg test, aqueous tablet (PMFII)) of 41 ng/mL and an AUC(0-inf) ([6]; human, plasma, po, 50 mg, read-out: AUC0-inf) of 671 ng·h/mL. The tolerability (Phase 1 safety data) was “generally well tolerated”, the “CYP responsible for in vitro metabolism” value (CYP3A4) was “CYP3A4 is the predominant CYP responsible for in vitro metabolism” and the CL/F ([7]; healthy matched controls) was 68.3 L/h. It also gave an AUC(0-inf) [7, 18] of 1440 ng·h/mL, a Cmax [7, 18] of 125 ng/mL and a half-life [7, 18] of 92.5 h. For the same compound, the AUC(0-inf) [7, 19] was 1820 ng·h/mL, the Cmax [7, 19] was 168 ng/mL and the Tmax [7, 19] was 1 h. For the same compound, the half-life [7, 19] was 94.5 h, the CL/F ([7]; moderate hepatic impairment) was 56.0 L/h and the “effect on QTc or blood pressure” value [8] was “no clinically meaningful effect”. For the same compound, the Cmax (clinical; in vivo) was 107 ng/mL, the Cmax (clinical; plasma, oral) was 152 ng/mL and the half-life (clinical; plasma, oral) was 131 h.
